{"source": "patent US4703061A", "about": "“Gamma-aminobutyric acid derivatives, process for production thereof, and use thereof as medicaments” (priority 1984, dated 1987)", "key": {"[1]": {"test_system": "motor activity enhanced by methamphetamine", "experiment": "Antagonistic effect against methamphetamine (automex method)", "format": "in vivo, ddY-strain male mice", "settings": "for Motor activity (total number of counts): 500 mg/kg i.p. + methamphetamine 3 mg/kg s.c.", "experimental": "(§1) In Tests 1 to 4 given below, ddY-strain male mice (body weight 20-25 g) were used, and the experiments were carried out in a semi-soundproof, constant-temperature room kept at a temperature of 23±1° C. and a humidity of 55±2%. The mice were allowed to take feed and water freely.\nTest 2: Antagonistic effect against methamphetamine (automex method)\nMice were used in 5-membered groups. Each of the test compounds was intraperitoneally administered to the mice in a predetermined dose, and immediately then, the mice were subcutaneously injected with methamphetamine in a dose of 3 mg/kg. The action of the test compounds on motor activity enhanced by methamphetamine was examined in accordance with the automex method given above."}, "[2]": {"test_system": "sleeping induced by pentobarbital", "experiment": "Effect of prolonging the time of sleeping induced by pentobarbital", "format": "in vivo, ddY-strain male mice", "settings": "pentobarbital sodium 50 mg/kg s.c.", "experimental": "as §1\nTest 3: Effect of prolonging the time of sleeping induced by pentobarbital\nThe effects of the test compounds on sleeping induced by pentobarbital were examined. The disappearance of righting reflex for 5 seconds or more was used as an index of sleeping. Mice were divided into 10-membered groups. Each of the test compounds was intraperitoneally administered to the mice in the doses indicated. Immediately then, pentobarbital sodium salt was subcutaneously injected into the mice in a dose of 50 mg/kg, and the sleeping time was compared with that of a group to which pentobarbital alone was injected (control)."}, "[3]": {"test_system": "cycloheximide-induced amnesia model", "experiment": "Effects on CXM-induced amnesia (step-down retention test)", "format": "in vivo, ddY-strain male mice", "settings": "for Escape learning latency (mean ± S.E.) / Step-down latency (mean ± S.E.): retention test 24 hours", "experimental": "The test animals used were ddY-strain male mice (body weight 30-35 g). The experiment was carried out indoors at about 20° C., and the mice were allowed to take feed and water freely. 2. Effects on memorized behaviors\nA device comprised of a floor grid surrounded on four sides by acrylic glass walls each having a lateral dimension of 21 cm and a wooden platform, 4×4×4 cm in size, fixed centrally to the floor grid was placed in a wooden semi-soundproof box having a size of 21×21×40 cm with a 15W electric bulb suspended from its ceiling.\nThe floor grid consisted of stainless steel rods, 3 mm in diameter, arranged at intervals of 8 mm. An intermittent electric shock (1 Hz, 0.5 sec., 60 V DC) was applied to the grid by an electric impulse apparatus and an isolator.\nA mouse was placed in a predetermined direction on the platform. Immediately after the mouse stepped down onto the floor grid (when the mouse's four limbs left the platform), an electric shock was applied to the floor grid, and the intermittent application of the electric shock was continued until the mouse climbed up the platform to escape from the electric shock. The time which elapsed until the mouse stepped down from the platform (SDL, step down latency) and the time which elapsed until the mouse escaped to the platform from the electric shock (ELL, escape learning latency) were measured.\nBy the same procedure as in the training test, a mouse was placed on the platform, and its step down latency (SDL) was measured. The cut-off time was 300 seconds.\nAfter the mouse stepped down, or the cut-off time elapsed, the mouse was placed on the floor grid at a corner of the device with its head directed in a direction opposite to the platform. An electric shock was applied to the mouse and its escape learning latency (ELL) was measured.\nMice divided into groups each consisting of not less than 20 mice were subjected to the training test, and immediately then subcutaneously injected with CXM (150 mg/kg). Twenty-four hours later, the mice was subjected to the retention test.\nImmediately after administration of CXM or application of ECS, a 0.9% normal saline solution of each of the test compounds was intraperitoneally administered to the mice. Separately, a 5% gum arabic solution of CXM was administered to the mice in a control group."}, "[4]": {"test_system": "electric convulsive shock-induced amnesia model", "experiment": "Effects on ECS-induced amnesia (step-down retention test)", "format": "in vivo, ddY-strain male mice", "settings": "for Escape learning latency (mean ± S.E.) / Step-down latency (mean ± S.E.): ECS 300 V, retention test 24 hours", "experimental": "The test animals used were ddY-strain male mice (body weight 30-35 g). The experiment was carried out indoors at about 20° C., and the mice were allowed to take feed and water freely. 2. Effects on memorized behaviors A device comprised of a floor grid surrounded on four sides by acrylic glass walls each having a lateral dimension of 21 cm and a wooden platform, 4×4×4 cm in size, fixed centrally to the floor grid was placed in a wooden semi-soundproof box having a size of 21×21×40 cm with a […] electric bulb suspended from its ceiling. The floor grid consisted of stainless steel rods, 3 mm in diameter, arranged at intervals of 8 mm. An intermittent electric shock (1 Hz, 0.5 sec., 60 V DC) was applied to the grid by an electric impulse apparatus and an isolator. A mouse was placed in a predetermined direction on the platform. Immediately after the mouse stepped down onto the floor grid (when the mouse's four limbs left the platform), an electric shock was applied to the floor grid, and the intermittent application of the electric shock was continued until the mouse climbed up the platform to escape from the electric shock. The time which elapsed until the mouse stepped down from the platform (SDL, step down latency) and the time which elapsed until the mouse escaped to the platform from the electric shock (ELL, escape learning latency) were measured. […] By the same procedure as in the training test, a mouse was placed on the platform, and its step down latency (SDL) was measured. The cut-off time was 300 seconds. After the mouse stepped down, or the cut-off time elapsed, the mouse was placed on the floor grid at a corner of the device with its head directed in a direction opposite to the platform. An electric shock was applied to the mouse and its escape learning latency (ELL) was measured. Mice divided into groups each consisting of not less than 15 mice were subjected to the training test, and immediately then, ECS (300 V DC, 0.5 sec.) was applied to the mice through both ears. Twenty-four hours later, the mice were subjected to the retention test. Immediately after administration of CXM or application of ECS, a 0.9% normal saline solution of each of the test compounds was intraperitoneally administered to the mice. Separately, a 5% gum arabic solution of CXM was administered to the mice in a control group. […] But the mice recovered 1 to 2 minutes later."}, "[5]": {"test_system": "ddY-strain male mice", "experiment": "Irwin's observation method (behavior, nervous, autonomic nervous and toxic symptoms)", "format": "in vivo", "settings": "1,000 mg/kg or below, i.p.; vs control group", "source_text": "These mice were also observed for changes in behavior, nervous symptoms, autonomic nervous symptoms, and toxic symptoms in accordance with the Irwin's observation method."}, "[6]": {"settings": "500 mg/kg i.p., CXM 150 mg/kg s.c."}, "[7]": {"settings": "1000 mg/kg i.p., CXM 150 mg/kg s.c."}}, "note": "Where a name gives a salt, the structure may show the parent alone."}
{"smiles": "CC(O)(CCO)CC(=O)NCCCC(=O)O", "note": "(stereo not drawn) [MV-GABA-Ca salt, calcium 4-(3,5-dihydroxy-3-methylpentylamide) butyrate]", "values": [{"measurement": "Motor activity (total number of counts)", "setting": "[1]; 5 minutes", "result": 10, "unit": "counts"}, {"measurement": "Motor activity (total number of counts)", "setting": "[1]; 10 minutes", "result": 11, "unit": "counts"}, {"measurement": "Motor activity (total number of counts)", "setting": "[1]; 15 minutes", "result": 22, "unit": "counts"}, {"measurement": "Motor activity (total number of counts)", "setting": "[1]; 20 minutes", "result": 38, "unit": "counts"}, {"measurement": "Motor activity (total number of counts)", "setting": "[1]; 25 minutes", "result": 71, "unit": "counts"}, {"measurement": "Motor activity (total number of counts)", "setting": "[1]; 30 minutes", "result": 126, "unit": "counts"}, {"measurement": "antagonistic effect against the increase of motor activity induced by methamphetamine", "setting": "[1]; 500 mg/kg, result in words", "result": "markedly inhibited the motor activity of mice enhanced by methamphetamine"}, {"measurement": "Sleeping time", "setting": "[2]; 1000 mg/kg i.p.", "result": "62.7 ± 7.5", "unit": "min"}, {"measurement": "Sleeping time", "setting": "[2]; 2000 mg/kg i.p.", "result": "77.2 ± 5.2", "unit": "min"}, {"measurement": "shortening of SDL induced by CXM", "setting": "[3]; 500 mg/kg and 1,000 mg/kg, result in words", "result": "significantly improved the shortening of SDL"}, {"measurement": "Escape learning latency (mean ± S.E.)", "setting": "[3]; [6]", "result": "10.5 ± 0.6", "unit": "s"}, {"measurement": "Step-down latency (mean ± S.E.)", "setting": "[3]; [6]", "result": "120.5 ± 10.6", "unit": "s"}, {"measurement": "Escape learning latency (mean ± S.E.)", "setting": "[3]; [7]", "result": "7.5 ± 0.6", "unit": "s"}, {"measurement": "Step-down latency (mean ± S.E.)", "setting": "[3]; [7]", "result": "175.2 ± 16.1", "unit": "s"}, {"measurement": "Escape learning latency (mean ± S.E.)", "setting": "[3]; 1000 mg/kg i.p., without CXM", "result": "5.2 ± 0.6", "unit": "s"}, {"measurement": "Step-down latency (mean ± S.E.)", "setting": "[3]; 1000 mg/kg i.p., without CXM", "result": "260.5 ± 14.0", "unit": "s"}, {"measurement": "prolongation of ELL induced by CXM", "setting": "[3]; 1,000 mg/kg, result in words", "result": "significantly improved the prolongation of ELL"}, {"measurement": "memory activating action", "setting": "[3]; without CXM, vs control group, result in words", "result": "did not show memory activating action"}, {"measurement": "Escape learning latency (mean ± S.E.)", "setting": "[4]; 250 mg/kg i.p.", "result": "12.8 ± 1.6", "unit": "s"}, {"measurement": "Step-down latency (mean ± S.E.)", "setting": "[4]; 250 mg/kg i.p.", "result": "104.6 ± 17.7", "unit": "s"}, {"measurement": "Escape learning latency (mean ± S.E.)", "setting": "[4]; 500 mg/kg i.p.", "result": "8.0 ± 1.1", "unit": "s"}, {"measurement": "Step-down latency (mean ± S.E.)", "setting": "[4]; 500 mg/kg i.p.", "result": "158.5 ± 21.7", "unit": "s"}, {"measurement": "prolongation of ELL (ECS)", "setting": "[4]; 500 mg/kg, result in words", "result": "significantly improved the prolongation of ELL"}, {"measurement": "Escape learning latency (mean ± S.E.)", "setting": "[4]; 750 mg/kg i.p.", "result": "6.7 ± 0.7", "unit": "s"}, {"measurement": "Step-down latency (mean ± S.E.)", "setting": "[4]; 750 mg/kg i.p.", "result": "215.2 ± 15.9", "unit": "s"}, {"measurement": "shortening of SDL and prolongation of ELL (ECS)", "setting": "[4]; 750 mg/kg, result in words", "result": "significantly improved shortening of SDL and also the prolongation of ELL"}, {"measurement": "changes in behavior, nervous symptoms, autonomic nervous symptoms, and toxic symptoms", "setting": "[5]", "result": "no marked difference from the control group could be found"}]}
